The values below come from ChEMBL document CHEMBL1154424, “Effect of delayed pulsed-wave ultrasound on local pharmacokinetics and pharmacodynamics of vancomycin-loaded acrylic bone cement in vivo” (Antimicrob Agents Chemother, 2007).

The subject of data set [1] is Oryctolagus cuniculus. In words: Effect on local hemorrhage in Staphylococcus aureus ATCC 13565 infected New Zealand white rabbit hip assessed as total volume of drainage fluid at 3 g administered drug-loaded acrylic bone cement implanted in hips treated with 300 mW/cm2 normal ultrasound for 0 to 12 hrs after surgery. The format is ADME, organism-based. To be noted: in vivo, other.

Data set [2] deals with Staphylococcus aureus. In words: Antimicrobial activity against Staphylococcus aureus ATCC 13565 infected in New Zealand white rabbit assessed as reduction of bacterial count per gram of femoral tissue at 3 g administered drug-loaded in acrylic bone cement implanted in hips treated with 300 mW/cm2 normal ultrasound for 0 to 12 hrs after surgery. In kind it is functional.
The test system of data set [3] is Staphylococcus aureus. The data set is described as follows: T>MIC in Staphylococcus aureus ATCC 13565 infected New Zealand white rabbit at 3 g administered drug-loaded acrylic bone cement implanted in hips exposed to 300 mW/cm2 delayed ultrasound for 12 to 24 hrs. To be noted: in vivo, other. In kind it is ADME, organism-based.
In data set [4] the test system is Staphylococcus aureus. The data set is described as follows: T>MIC in Staphylococcus aureus ATCC 13565 infected New Zealand white rabbit at 3 g administered drug-loaded acrylic bone cement implanted in hips at 3 g exposed to 300 mW/cm2 delayed ultrasound for 0 to 12 hrs. The format is ADME, organism-based. To be noted: in vivo, other.
Data set [5] deals with Staphylococcus aureus. In words: Antimicrobial activity against Staphylococcus aureus ATCC 13565 infected in New Zealand white rabbit assessed as reduction of bacterial count per gram of femoral tissue at 3 g administered drug-loaded in acrylic bone cement implanted in hips treated with 300 mW/cm2 normal ultrasound for 12 to 24 hrs after surgery. The format is functional.

The subject of data set [6] is Staphylococcus aureus. In words: Antimicrobial activity against Staphylococcus aureus ATCC 13565 infected in New Zealand white rabbit assessed as reduction of bacterial count in hip aspirates at 3 g administered drug-loaded in acrylic bone cement implanted in hips treated with 300 mW/cm2 normal ultrasound for 12 to 24 hrs after surgery. In kind it is functional.
Data set [7] concerns Staphylococcus aureus. The data set is described as follows: Antimicrobial activity against Staphylococcus aureus ATCC 13565 infected in New Zealand white rabbit assessed as reduction of bacterial count in hip aspirates at 3 g administered drug-loaded in acrylic bone cement implanted in hips treated with 300 mW/cm2 normal ultrasound for 0 to 12 hrs after surgery. The format is functional.

The test system of data set [8] is Staphylococcus aureus. The data set is described as follows: T>MIC in Staphylococcus aureus ATCC 13565 infected New Zealand white rabbit at 3 g administered drug-loaded acrylic bone cement implanted in hips after 48 hrs surgery without ultrasound. The format is ADME, organism-based. To be noted: in vivo, other.
The test system of data set [9] is Oryctolagus cuniculus. The data set is described as follows: Effect on local hemorrhage in Staphylococcus aureus ATCC 13565 infected New Zealand white rabbit hip assessed as total volume of drainage fluid at 3 g administered drug-loaded acrylic bone cement implanted in hips treated with 300 mW/cm2 normal ultrasound for 12 to 24 hrs after surgery. The format is ADME, organism-based. To be noted: in vivo, other.

In data set [10] the test system is Staphylococcus aureus. In words: microbe, parasite or virus in culture. To be noted: ATCC 13565.
Description: Antibacterial activity against Staphylococcus aureus ATCC 13565 by tube dilution method

In brackets after ≈: the same amount, converted by molar mass.

In the case of `CN[C@H](CC(C)C)C(=O)N[C@H]1C(=O)N[C@@H](CC(N)=O)C(=O)N[C@H]2C(=O)N[C@H]3C(=O)N[C@H](C(=O)N[C@H](C(=O)O)c4cc(O)cc(O)c4-c4cc3ccc4O)[C@H](O)c3ccc(c(Cl)c3)Oc3cc2cc(c3O[C@@H]2O[C@H](CO)[C@@H](O)[C@H](O)[C@H]2O[C@H]2C[C@](C)(N)[C@H](O)[C@H](C)O2)Oc2ccc(cc2Cl)[C@H]1O` [VANCOMYCIN], the Activity in [1] came to 4.65 mL; in data set [9] it was 1.32 mL. For the same compound, the log10cfu in data set [2] is 0.53; in data set [5], 1.29. The “T>MIC” value was determined as 35.4 h in [3], 13.59 h in data set [4] and 14.89 h in data set [8]. In addition, the log10CFU/ml was found to be 2.77 in [6] and 1.62 in data set [7]. Moreover, in data set [10], the MBC stood at 3 µg/mL (≈ 2.07 µM).
